Source: patent US4753953A, “Pyridonecarboxylic acid derivatives and antibacterial pharmaceutical compositions thereof” (priority 1985, dated 1988)
Converted amounts (≈) assume the structure as drawn. Where two headings read alike, the source gives them in different places.

Key:
B. fragilis 25285 = assay: MIC, in vitro antibacterial activity (standard strains); assay type: cell-based, Bacteroides fragilis; settings: Bacteroides fragilis, 25285; 10^6 cells/ml; Gram -; read-out: MIC
[1] = tested on: Yersinia enterocolitica IID 981; assay: as above; assay type: cell-based; settings: Yersinia enterocolitica, IID981; 10^6 cells/ml; Gram -; read-out: MIC
P. cepacia GIFU 518 = assay: as above; assay type: cell-based; settings: Burkholderia cepacia, GIFU518
Pst. micros UPI 5464-1 = assay: as above; assay type: cell-based; settings: Parvimonas micra, UPI54641; 10^6 cells/ml; Gram +; read-out: MIC
[2] = tested on: Alcaligenes faecalis 0114002; assay: as above; assay type: cell-based; settings: Alcaligenes faecalis, 0114002; 10^6 cells/ml; Gram -; read-out: MIC
P. aeruginosa IID 1210 = assay: as above; assay type: cell-based, Pseudomonas aeruginosa; settings: Pseudomonas aeruginosa, IID1210; 10^6 cells/ml; Gram -; read-out: MIC
[3] = tested on: Eubacterium lentum GAI 5242; assay: as above; assay type: cell-based; settings: Eggerthella lenta, GAI5242; 10^6 cells/ml; Gram +; read-out: MIC
[4] = tested on: Proteus vulgaris IFO 3167; assay: as above; assay type: cell-based; settings: Proteus vulgaris, IFO3167
B. vulgatus KYA 29327 = assay: as above; assay type: cell-based; settings: Phocaeicola vulgatus, KYA29327; 10^6 cells/ml; Gram -; read-out: MIC
F. necrophorum S-45 = assay: as above; assay type: cell-based; settings: Fusobacterium necrophorum, S45; 10^6 cells/ml; Gram -; read-out: MIC
[5] = tested on: Klebsiella pneumoniae KY(GN)6445; assay: as above; assay type: cell-based; settings: Klebsiella pneumoniae
[6] = tested on: Acinetobacter anitratus IID 876; assay: as above; assay type: cell-based; settings: Acinetobacter calcoaceticus, IID876; 10^6 cells/ml; Gram -; read-out: MIC
B. distasonis 8503 = assay: as above; assay type: cell-based; settings: Parabacteroides distasonis, 8503; 10^6 cells/ml; Gram -; read-out: MIC
[7] = tested on: Fusobacterium mortiferum 4249; assay: as above; assay type: cell-based; settings: Fusobacterium mortiferum, 4249; 10^6 cells/ml; Gram -; read-out: MIC
B. fragilis 0558 = assay: as above; assay type: cell-based, Bacteroides fragilis; settings: Bacteroides fragilis, 0558; 10^6 cells/ml; Gram -; read-out: MIC
S. pneumoniae IID 552 = assay: as above; assay type: cell-based; settings: Streptococcus pneumoniae, IID552; 10^6 cells/ml; Gram +; read-out: MIC
E. coli ML 4707 = assay: as above; assay type: cell-based, Escherichia coli; settings: Escherichia coli, read-out: MIC
Shigella sonnei IID 969 = assay: as above; assay type: cell-based; settings: Shigella sonnei, IID969; 10^6 cells/ml; Gram -; read-out: MIC
Description: Minimal inhibitory concentrations (MICs) were determined in accordance with the method recommended by Japan Society of Chemotherapy.

C. ramosum = assay: as above; assay type: cell-based; settings: Thomasclavelia ramosa; 10^6 cells/ml; Gram +; read-out: MIC
[8] = tested on: Salmonella enteritidis IID 604; assay: as above; assay type: cell-based; settings: Salmonella enterica; 10^6 cells/ml; Gram -; read-out: MIC
[9] = tested on: Peptococcus magnus KY 017; assay: as above; assay type: cell-based; settings: Finegoldia magna, KY017; 10^6 cells/ml; Gram +; read-out: MIC
[10] = tested on: Veillonella parvula KYA 10790; assay: as above; assay type: cell-based; settings: Veillonella parvula, KYA10790; 10^6 cells/ml; Gram -; read-out: MIC
P. maltophilia GIFU 2491 = assay: as above; assay type: cell-based; settings: Stenotrophomonas maltophilia, GIFU2491
[11] = tested on: S. aureus IID 670 (Terajima); assay: as above; assay type: cell-based, Staphylococcus aureus; settings: Staphylococcus aureus, IID670; 10^6 cells/ml; Gram +; read-out: MIC
[12] = tested on: Bacteroides fragilis GM 7000; assay: as above; assay type: cell-based; settings: Bacteroides fragilis, GM7000; 10^6 cells/ml; Gram -; read-out: MIC
C. perfringens KYA 13123 = assay: microbe, parasite or virus in culture; assay type: cell-based; settings: Clostridium perfringens, KYA13123
[13] = tested on: Staphylococcus aureus 209 P; assay: MIC, in vitro antibacterial activity (standard strains); assay type: cell-based; settings: Staphylococcus aureus, 209P; 10^6 cells/ml; Gram +; read-out: MIC
[14] = tested on: Enterobacter cloacae IID 977; assay: as above; assay type: cell-based; settings: Enterobacter cloacae, IID977; 10^6 cells/ml; Gram -; read-out: MIC
S. pyogenes IID 692 = assay: as above; assay type: cell-based, Streptococcus pyogenes; settings: Streptococcus pyogenes, IID692; 10^6 cells/ml; Gram +; read-out: MIC
E. coli ATCC 10536 = assay: as above; assay type: cell-based, Escherichia coli; settings: Escherichia coli, ATCC10536; 10^6 cells/ml; Gram -; read-out: MIC
S. aureus Smith = assay: as above; assay type: cell-based, Staphylococcus aureus; settings: Staphylococcus aureus; 10^6 cells/ml; Gram +; read-out: MIC
[15] = tested on: B. thetaiotaomicron (0661); assay: as above; assay type: cell-based; settings: Bacteroides thetaiotaomicron; 10^6 cells/ml; Gram -; read-out: MIC
[16] = 10^6 cells/ml, Gram -, read-out: MIC
[17] = ML4707, 10^6 cells/ml, Gram -, Table 1

## C[C@H]1CN(c2c(F)cc3c(=O)c(C(=O)O)cn(C4CC4)c3c2Cl)C[C@H]1N (relative stereo) [Example 16, 7-(cis-3-Amino-4-methyl-1-pyrrolidinyl)-8-chloro-1-cyclopropyl-6-fluoro-1,4-dihydro-4-oxo-3-quinolinecarboxylic acid]
B. fragilis 25285
  MIC: 0.05 µg/mL (≈ 0.132 µM)
[1]
  MIC: 0.05 µg/mL (≈ 0.132 µM)
P. cepacia GIFU 518
  MIC: 0.39 µg/mL (≈ 1.03 µM)
Pst. micros UPI 5464-1
  MIC: 0.1 µg/mL (≈ 0.263 µM)
[2]
  MIC: 0.1 µg/mL (≈ 0.263 µM)
P. aeruginosa IID 1210
  MIC: 0.39 µg/mL (≈ 1.03 µM)
[3]
  MIC: 0.05 µg/mL (≈ 0.132 µM)
[4]; [16]
  MIC: 0.0125 µg/mL (≈ 0.0329 µM)
B. vulgatus KYA 29327
  MIC: 0.05 µg/mL (≈ 0.132 µM)
F. necrophorum S-45
  MIC: 0.05 µg/mL (≈ 0.132 µM)
[5]; [16]
  MIC: 0.025 µg/mL (≈ 0.0658 µM)
[6]
  MIC: 0.025 µg/mL (≈ 0.0658 µM)
B. distasonis 8503
  MIC: 0.2 µg/mL (≈ 0.527 µM)
[7]
  MIC: 0.1 µg/mL (≈ 0.263 µM)
B. fragilis 0558
  MIC: 0.05 µg/mL (≈ 0.132 µM)
S. pneumoniae IID 552
  MIC: 0.1 µg/mL (≈ 0.263 µM)
E. coli ML 4707; [17]
  MIC: 6.3 ng/mL (≈ 0.0166 µM)
E. coli ML 4707; ML4707, Table 2, strain of the mouse infection
  MIC: 12.5 ng/mL (≈ 0.0329 µM)
Shigella sonnei IID 969
  MIC: 0.0063 µg/mL (≈ 0.0166 µM)
C. ramosum
  MIC: 0.39 µg/mL (≈ 1.03 µM)
[8]
  MIC: 0.025 µg/mL (≈ 0.0658 µM)
[9]
  MIC: 0.05 µg/mL (≈ 0.132 µM)
[10]
  MIC: 0.1 µg/mL (≈ 0.263 µM)
P. maltophilia GIFU 2491; [16]
  MIC: 0.05 µg/mL (≈ 0.132 µM)
[11]
  MIC: 0.05 µg/mL (≈ 0.132 µM)
[12]
  MIC: 0.05 µg/mL (≈ 0.132 µM)
C. perfringens KYA 13123
  MIC: 0.05 µg/mL (≈ 0.132 µM)
[13]
  MIC: 0.05 µg/mL (≈ 0.132 µM)
[14]
  MIC: 0.05 µg/mL (≈ 0.132 µM)
S. pyogenes IID 692
  MIC: 0.1 µg/mL (≈ 0.263 µM)
E. coli ATCC 10536
  MIC: 0.0125 µg/mL (≈ 0.0329 µM)
S. aureus Smith
  MIC: 0.025 µg/mL (≈ 0.0658 µM)
[15]
  MIC: 0.1 µg/mL (≈ 0.263 µM)

## C[C@@H]1CN(c2c(F)cc3c(=O)c(C(=O)O)cn(C4CC4)c3c2F)C[C@H]1N (relative stereo) [Example 18, 7-(trans-3-Amino-4-methyl-1-pyrrolidinyl)-1-cyclopropyl-6,8-difluoro-1,4-dihydro-4-oxo-3-quinolinecarboxylic acid]
B. fragilis 25285
  MIC: 0.2 µg/mL (≈ 0.55 µM)
[1]
  MIC: 0.05 µg/mL (≈ 0.138 µM)
P. cepacia GIFU 518
  MIC: 0.1 µg/mL (≈ 0.275 µM)
Pst. micros UPI 5464-1
  MIC: 0.1 µg/mL (≈ 0.275 µM)
[2]
  MIC: 0.1 µg/mL (≈ 0.275 µM)
P. aeruginosa IID 1210
  MIC: 0.78 µg/mL (≈ 2.15 µM)
[3]
  MIC: 0.1 µg/mL (≈ 0.275 µM)
[4]
  MIC: 0.0125 µg/mL (≈ 0.0344 µM)
B. vulgatus KYA 29327
  MIC: 0.39 µg/mL (≈ 1.07 µM)
F. necrophorum S-45
  MIC: 0.2 µg/mL (≈ 0.55 µM)
[5]
  MIC: 0.0125 µg/mL (≈ 0.0344 µM)
[6]
  MIC: 0.025 µg/mL (≈ 0.0688 µM)
B. distasonis 8503
  MIC: 0.39 µg/mL (≈ 1.07 µM)
[7]
  MIC: 0.2 µg/mL (≈ 0.55 µM)
B. fragilis 0558
  MIC: 0.2 µg/mL (≈ 0.55 µM)
S. pneumoniae IID 552
  MIC: 0.05 µg/mL (≈ 0.138 µM)
E. coli ML 4707; [17]
  MIC: 6.3 ng/mL (≈ 0.0173 µM)
Shigella sonnei IID 969
  MIC: 0.0125 µg/mL (≈ 0.0344 µM)
C. ramosum
  MIC: 0.78 µg/mL (≈ 2.15 µM)
[8]
  MIC: 0.025 µg/mL (≈ 0.0688 µM)
[9]
  MIC: 0.05 µg/mL (≈ 0.138 µM)
[10]
  MIC: 0.1 µg/mL (≈ 0.275 µM)
P. maltophilia GIFU 2491
  MIC: 0.05 µg/mL (≈ 0.138 µM)
[11]
  MIC: 0.2 µg/mL (≈ 0.55 µM)
[12]
  MIC: 0.2 µg/mL (≈ 0.55 µM)
C. perfringens KYA 13123
  MIC: 0.1 µg/mL (≈ 0.275 µM)
[13]
  MIC: 0.05 µg/mL (≈ 0.138 µM)
[14]
  MIC: 0.05 µg/mL (≈ 0.138 µM)
S. pyogenes IID 692
  MIC: 0.1 µg/mL (≈ 0.275 µM)
E. coli ATCC 10536
  MIC: 0.05 µg/mL (≈ 0.138 µM)
S. aureus Smith
  MIC: 0.05 µg/mL (≈ 0.138 µM)
[15]
  MIC: 0.39 µg/mL (≈ 1.07 µM)

## CC1COc2c(N3C[C@@H](N)[C@@H](C)C3)c(F)cc3c(=O)c(C(=O)O)cn1c23.Cl (relative stereo) [Example 29, 10-(cis-3-Amino-4-methyl-1-pyrrolidinyl)-9-fluoro-2,3-dihydro-3-methyl-7-oxo-7H-pyrido[1,2,3-de][1,4]benzoxazine-6-carboxylic acid hydrochloride]
B. fragilis 25285
  MIC: 1.56 µg/mL
[1]
  MIC: 0.2 µg/mL
P. cepacia GIFU 518; [16]
  MIC: 1.56 µg/mL
Pst. micros UPI 5464-1
  MIC: 0.39 µg/mL
[2]
  MIC: 1.56 µg/mL
P. aeruginosa IID 1210
  MIC: 6.25 µg/mL
[3]
  MIC: 0.78 µg/mL
[4]; [16]
  MIC: 0.05 µg/mL
B. vulgatus KYA 29327
  MIC: 6.25 µg/mL
F. necrophorum S-45
  MIC: 0.78 µg/mL
[5]; [16]
  MIC: 0.05 µg/mL
[6]
  MIC: 1.56 µg/mL
[7]
  MIC: 0.78 µg/mL
B. fragilis 0558
  MIC: 1.56 µg/mL
S. pneumoniae IID 552
  MIC: 0.39 µg/mL
E. coli ML 4707; [17]
  MIC: 50 ng/mL
Shigella sonnei IID 969
  MIC: 0.05 µg/mL
C. ramosum
  MIC: 12.5 µg/mL
[8]
  MIC: 0.1 µg/mL
[9]
  MIC: 0.78 µg/mL
[10]
  MIC: 0.39 µg/mL
P. maltophilia GIFU 2491; [16]
  MIC: 1.56 µg/mL
[11]
  MIC: 0.39 µg/mL
[12]
  MIC: 3.13 µg/mL
C. perfringens KYA 13123
  MIC: 0.39 µg/mL
[13]
  MIC: 0.2 µg/mL
[14]
  MIC: 0.2 µg/mL
S. pyogenes IID 692
  MIC: 0.39 µg/mL
E. coli ATCC 10536
  MIC: 0.05 µg/mL
S. aureus Smith
  MIC: 0.2 µg/mL
[15]
  MIC: 6.25 µg/mL
